# Source: patent USRE38723E1, “Haloalkyl derivatives of reporter molecules used to analyze metabolic activity in cells” (Molecular Probes, Inc., priority 1991, dated 2005)
# Columns and labels:
# [1] = tested on: CRE-BAG2 cells expressing β-galactosidase; assay: Cellular retention of coumarin galactopyranoside substrates (Example 17); type: cell-based; settings: 10 μM, hypotonic shock loading, 37° C., excitation 360±20 nm, emission >400 nm
# Procedure: CRE-BAG2 cells are prepared as described in Example 15.
# Staining solutions of 4-methylcoumarin β-D-galactopyranoside, 4-chloromethylcoumarin β-D-galactopyranoside and 4-trifluoromethylcoumarin β-D-galactopyranoside, respectively, are prepared that are 10 μM in concentration. Each galactopyranoside substrate is loaded into CRE-BAG2 cells expressing β-galactosidase using brief hypotonic shock for less than five minutes. Cells are then washed free of extracellular substrate and incubated for three hours in fresh culture medium at 37° C. Each cell sample is then illuminated at 360±20 nm, and the fluorescence is observed at >400 nm. Fluorescence intensity data is acquired using a cooled CCD camera and subsequently stored in digital format.
# [2] = tested on: Glutathione Transferase from Equine Liver; assay: Glutathione transferase activity in vitro (Example 14); type: biochemical; settings: room temperature, with GSH
# Procedure: Activity of glutathione transferase in vitro can be assayed essentially by the method of Grants and Matsumura (INSECT PHYSIOL. 18 (6), 615 (1988)). • 1) Reagents: The stock reagents required are: 1) 5-Chloromethylfluorescein (CMF) substrate (Example 1) 10 mg/mL in DMF, diluted 1:10 in reaction buffer to 1 mg/mL; 2). Reaction buffer 100 mM potassium phosphate, 15% glycerol pH 6.8; 3). Glutathione (GSH) 155 mM in 20 mM TRIS, 2 mM DTT, 15% glycerol pH 7.8; 4). Glutathione Transferase from Equine Liver (Sigma #G 6511) 1.0 mg/mL in reaction buffer. • 2) Assay. The reaction mixture consists of 0.7 mL reaction buffer, 0.1 mL GSH, 0.1 mL substrate and 0.1 mL enzyme. The background is measured and subtracted by using 0.1 mL of the reaction buffer instead of the enzyme. Enzymatic activity can be detected at less than 5 minutes at room temperature. Product formation can be detected by separation of the polar product from the less polar substrate by a suitable means such as thin layer chromatography or high performance liquid chromatography. For instance, product accumulation can be detected by thin layer chromatography using A) 15:85 methanol:chloroform or B) 2:5:15 NH4OH:isopropyl alcohol:methanol. […] Alternatively the fluorescence of the product is determined using a fluorometer versus a fluorescein standard with excitation at 492 and emission measured at 515 nm. […]
# [3] = tested on: NIH/3T3 cells and CRE BAG 2 cells; assay: Cytotoxicity of substrate in working medium (Example 11); type: cell-based
# Procedure: (§1) NIH/3T3 cells (lacZ negative) and CRE BAG 2 cells (3T3 cells transformed with a retrovirus containing lacZ gene) are employed for cellular assays. Both cell lines can be obtained from American Type Culture Collection Co., Rockville, Md. The cells are grown in a humidified atmosphere of 5% CO2 in Dulbecco's modified Eagle's medium supplemented with 10% calf serum, 50 μg/mL gentamicin, 300 μg/mL L-glutamine and 10 mM HEPES pH 7.4.
# (§2) 100 μL of stock solution is added to 10 mL of fresh culture medium to prepare a “working medium” containing 100 μM Cl-MUG. This medium is filter-sterilized by passing through an Acrodisc™ filter (0.45 μm pore size). A working medium containing MUG is prepared in the same way.
# Fluorescence can be detected in the cells for at least 24 hours following washing of the cells with fresh medium.
# [4] = tested on: lacZ positive cells; assay: Dye retention after paraformaldehyde fixation (Example 11); type: cell-based; settings: 3.7% paraformaldehyde fixation, Hoechst filter set
# Procedure: The cells grown on coverslips and incubated with either Cl-MUG or MUG are immersed in 3.7% paraformaldehyde in 80 mM Pipes buffer, pH 6.5 for 4 minutes to allow the paraformaldehyde to penetrate the cells. The cells are then transferred to 3.7% paraformaldehyde in PBS. After 6 minutes, the cells are washed three times with PBS buffer for ten minutes. The coverslips are put on the slides and sealed.
# The fixed cells are examined for their fluorescence under a Zeiss microscope equipped with a Hoechst filter set.
# [5] = tested on: NIH/3T3 cells (lacZ negative); assay: Staining of living lacZ negative cells with galactosidase substrate (Example 11); type: cell-based; settings: 100 μM in working medium, 60 minutes at 37° C., washed with fresh medium
# Procedure: as §1
# (§3) 4-Chloromethylumbelliferyl β-D-galactoside (Cl-MUG) (Example 3) is dissolved in DMSO to get a 10 mM stock solution. A 10 mM stock solution of 4-methylumbelliferyl β-D-galactoside (MUG) (Molecular Probes) is also made in DMSO as a control. The stock solutions are kept sealed in brown reagent bottles and stored at −20° C.
# as §2
# (§4) Cells grown on coverslips are transferred to the working medium and incubated at 37° C. under normal conditions. Cells are examined at the desired time for their fluorescence under a Zeiss microscope equipped with a Hoechst filter set (EX […]/EM 480 nm). […] After 6 hours continuous incubation, the fluorescence intensity of stained CRE BAG 2 cells reaches its highest level.
# [6] = tested on: lacZ positive CRE BAG 2 cells; assay: Staining of living lacZ positive cells with galactosidase substrate (Example 11); type: cell-based
# Procedure: as §1, §3, §2, §4
# [7] = tested on: lacZ positive CRE BAG 2 cells; assay: Cellular retention after loading by hypoosmotic shock (Example 12); type: cell-based; settings: after incubation for 4 hours, 2 mM
# Procedure: 5-Chloromethylfluorescein di-β-D-galactoside (CMFDG) (Example 1) is dissolved in DMSO to get 20 mM stock solution. A 40 mM stock solution offluorescein di-β-D-galaetoside (FDG) (Molecular Probes) is also made in DMSO as a control. The stock solutions are kept sealed in brown reagent bottles and stored at −20° C.
# • (A) FCS-PBS Solution: Phosphate buffered saline (GIBCO), 4% fetal calf serum, 10 mM HEPES, pH 7.2 • (B) Staining Solution: CMFDG: 200 μL of stock solution is diluted with distilled water to 4 mL to get a 1 mM staining solution. FDG: 400 μL of stock solution is diluted to 4 mL with distilled water to get a 4 mM staining solution. 4. Staining and Examination of Cells:
# Cells grown on coverslips are transferred to a Petri dish containing 3 mL of FCS-PBS solution and then incubated at 37° C. for 10 minutes. 3 mL of prewarmed (37° C.) 1 mM CMFDG staining solution is added to give a final dye concentration of 0.5 mM The solutions are mixed rapidly. The cells are incubated at 37° C. for exactly one minute. To stop the loading, the cells are transferred to a 1.8 mL of ice-cold FCS-PBS solution. FDG is loaded into cells by using the same procedure except that the final dye concentrations is 2 mM. Cells are then incubated under normal culture conditions to examine the dye retention. Cells are examined without washing at the desired time for their fluorescence under a Zeiss microscope equipped with a FITC filter set (EX 485 nm/EM 530 nm).
# [8] = tested on: NIH/3T3 cells; assay: Cellular retention of rhodamine 110 peptidase substrates (Example 16); type: cell-based; settings: 25 μM; for leakage of enzyme reaction product after staining: 30 minutes at 37° C.; for fluorescence after washing and several hours in fresh media: fluorescein long-pass filter set
# Procedure: NIH/3T3 cells are prepared as described in Example 15.
# Staining solutions of bis-(L-leucine)-rhodamine 110 and L-leucine-rhodamine 110-p-chloromethylbenzamide (Example 9), respectively, are prepared that are 25 μM in concentration. Equivalent NIH/3T3 cells are incubated with the same amount of peptidase substrate for thirty (30) minutes at 37° C. in Modified Tyrode's buffered saline (135 mM NaCl, 5 mM KCl, 1 mM MgCl2, 1.8 mM CaCl2, 10 mM NaHEPES, 5.6 mM glucose, pH 7.5, plus 0.1% bovine serum albumin).
# The cells are washed and placed in fresh media for several hours.
# [9] = 100 μM working medium for 24 hours
compound,measurement,setting,value
O=c1cc(C(F)(F)F)c2ccc(O[C@@H]3O[C@H](CO)[C@H](O)[C@H](O)[C@H]3O)cc2o1 [4-trifluoromethylcoumarin β-D-galactopyranoside],fluorescence intensity after three hours in fresh culture medium,[1],low fluorescent intensity
"O=C1OC2(c3ccc(O)cc3Oc3cc(O)ccc32)c2ccc(CCl)cc21 [CMF, 5-chloromethylfluorescein]",time at which enzymatic activity can be detected,[2],less than 5 minutes
"O=c1cc(CCl)c2ccc(O[C@@H]3O[C@H](CO)[C@H](O)[C@H](O)[C@H]3O)cc2o1 [Cl-MUG, 7-(β-D-galactopyranosyloxy)-4-chloromethylcoumarin]",cell morphology,[3]; [9],morphologically normal
same,population doubling time versus cells in substrate-free medium,[3]; [9],same population doubling time
same,time fluorescence can be detected in the cells following washing with fresh medium,[3]; after incubation in working medium,at least 24 hours
same,cytotoxicity,[3]; either type of cell,no cytotoxicity
same,subculture after preincubation,"[3]; preincubated in working medium for 6 hours, subcultured in fresh medium",second generation of cells that is normal
same,fluorescence intensity after three hours in fresh culture medium,[1],brightly fluorescent
same,fluorescence of fixed cells,[4],still brightly fluorescent
same,fluorescence of cells under microscope,[5],not in 3T3 cells
same,fluorescence of cells under microscope,"[6]; 100 μM in working medium, 60 minutes at 37° C., washed with fresh medium",fluorescence is observed in the cytoplasmic area
same,continuous incubation time at which fluorescence intensity reaches its highest level,[6]; 100 μM working medium,6 h
"O=C1OC2(c3ccc(O[C@@H]4O[C@H](CO)[C@H](O)[C@H](O)[C@H]4O)cc3Oc3cc(O[C@@H]4O[C@H](CO)[C@H](O)[C@H](O)[C@H]4O)ccc32)c2ccccc21 [FDG, fluorescein di-β-D-galaetoside, reference compound]",fluorescence of stained cells after 4 hours,[7],very dim with high background fluorescence in the medium
CC(C)CC(N)C(=O)Nc1ccc2c(c1)Oc1cc(NC(=O)c3ccc(CCl)cc3)ccc1C21OC(=O)c2ccccc21 [L-leucine-rhodamine 110-p-chloromethylbenzamide],leakage of enzyme reaction product after staining,[8],significantly less leakage
same,fluorescence after washing and several hours in fresh media,[8],"bright, well-defined staining pattern"
same,melting point,,275 °C (dec.)
"Cc1cc(=O)oc2cc(O[C@@H]3O[C@H](CO)[C@H](O)[C@H](O)[C@H]3O)ccc12 [MUG, 4-methylumbelliferyl β-D-galactoside, reference compound]",fluorescence intensity after three hours in fresh culture medium,[1],low fluorescent intensity
same,fluorescence of fixed cells,[4],barely fluorescent
"CC(C)CC(N)C(=O)Nc1ccc2c(c1)Oc1cc(NC(=O)C(N)CC(C)C)ccc1C21OC(=O)c2ccccc21 [bis-(L-leucine)-rhodamine 110, reference compound]",leakage of enzyme reaction product after staining,[8],substantial leakage
same,fluorescence after washing and several hours in fresh media,[8],no fluorescent signal
